Measurements as given in the supplement of paper PMC10307832.

Legend:
Assay in all cases: relative viability (nuclei count vs DMSO), 5 days (fraction); higher = more cells survive
[1] = tested on: NCI-H1993
In short: (§1)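 One day after seeding in 1536-well plates, lung cancer cell lines were dosed by pin tool. Dosing was either single-drug or a fixed anchor-drug dose plus five library-drug doses (not always all listed) in √10 steps. After 5 days, nuclei were stained in one fix-and-stain step and counted on 4× images, and relative viability is the nuclei count of treated wells over that of vehicle wells, given as the median of duplicate plates.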

[2] = tested on: NCI-H727
In short: as §1

[3] = tested on: BEN
In short: as §1

[4] = tested on: HOP-62
In short: as §1

[5] = tested on: COR-L 105
In short: as §1

[6] = tested on: HARA
In short: as §1

[7] = tested on: HCC-827
In short: as §1

[8] = tested on: HCC-44
In short: as §1

[9] = tested on: SK-MES-1
In short: as §1

[10] = tested on: NCI-H2009
In short: as §1

[11] = tested on: PC-3 [JPC-3]
In short: as §1

[12] = tested on: HCC-366
In short: as §1

[13] = tested on: LCLC-97TM1
In short: as §1

[14] = tested on: NCI-H2126
In short: as §1

[15] = tested on: LU99A
In short: as §1

[16] = tested on: HCC-15
In short: as §1

[17] = tested on: LC-2-ad
In short: as §1

[18] = tested on: NCI-H2170
In short: as §1

[19] = tested on: COR-L23
In short: as §1

[20] = tested on: NCI-H2087
In short: as §1

[21] = tested on: LXF-289
In short: as §1

[22] = tested on: PC-14
In short: as §1

Work on O=c1[nH]c2ccccc2n1C1CCN(CCCC(c2ccc(F)cc2)c2ccc(F)cc2)CC1 [Pimozide] + Nc1ncn([C@H]2C[C@H](O)[C@@H](CO)O2)c(=O)n1 [Decitabine] (partner 2 µM) yielded a relative viability ([1]; first compound 0.08 µM) of 0.561, a relative viability ([1]; first compound 0.253 µM) of 0.56 and a relative viability ([1]; first compound 0.8 µM) of 0.566. For the same compound, the relative viability ([1]; first compound 2.53 µM) was 0.556, the relative viability ([1]; first compound 8 µM) was 0.642 and the relative viability ([2]; first compound 0.08 µM) was 0.834. It also gave a relative viability ([2]; first compound 0.253 µM) of 0.588, a relative viability ([2]; first compound 0.8 µM) of 0.933 and a relative viability ([2]; first compound 2.53 µM) of 0.98. The relative viability ([2]; first compound 8 µM) was 0.856, the relative viability ([3]; first compound 0.08 µM) was 0.805 and the relative viability ([3]; first compound 0.253 µM) was 0.71. For the same compound, the relative viability ([3]; first compound 0.8 µM) was 0.757, the relative viability ([3]; first compound 2.53 µM) was 0.62 and the relative viability ([3]; first compound 8 µM) was 0.767. It also gave a relative viability ([4]; first compound 0.08 µM) of 0.231, a relative viability ([4]; first compound 0.253 µM) of 0.228 and a relative viability ([4]; first compound 2.53 µM) of 0.245. The relative viability ([4]; first compound 8 µM) was 0.244, the relative viability ([5]; first compound 0.08 µM) was 0.49 and the relative viability ([5]; first compound 0.253 µM) was 0.702. It also gave a relative viability ([5]; first compound 0.8 µM) of 0.623, a relative viability ([5]; first compound 2.53 µM) of 0.659 and a relative viability ([5]; first compound 8 µM) of 0.701. It also gave a relative viability ([6]; first compound 0.08 µM) of 0.535, a relative viability ([6]; first compound 0.253 µM) of 0.586 and a relative viability ([6]; first compound 0.8 µM) of 0.476. For the same compound, the relative viability ([6]; first compound 2.53 µM) was 0.528, the relative viability ([6]; first compound 8 µM) was 0.617 and the relative viability ([7]; first compound 0.253 µM) was 0.284. The relative viability ([7]; first compound 0.8 µM) was 0.348, the relative viability ([7]; first compound 2.53 µM) was 0.334 and the relative viability ([7]; first compound 8 µM) was 0.32. For the same compound, the relative viability ([8]; first compound 0.08 µM) was 1.01, the relative viability ([8]; first compound 0.253 µM) was 0.983 and the relative viability ([8]; first compound 0.8 µM) was 0.843. For the same compound, the relative viability ([8]; first compound 2.53 µM) was 0.935, the relative viability ([8]; first compound 8 µM) was 0.919 and the relative viability ([9]; first compound 0.08 µM) was 0.389. The relative viability ([9]; first compound 0.253 µM) was 0.39, the relative viability ([9]; first compound 0.8 µM) was 0.355 and the relative viability ([9]; first compound 2.53 µM) was 0.454. It also gave a relative viability ([9]; first compound 8 µM) of 0.774, a relative viability ([10]; first compound 0.08 µM) of 0.442 and a relative viability ([10]; first compound 0.253 µM) of 0.374. The relative viability ([10]; first compound 0.8 µM) was 0.327, the relative viability ([10]; first compound 2.53 µM) was 0.436 and the relative viability ([10]; first compound 8 µM) was 0.412. It also gave a relative viability ([11]; first compound 0.253 µM) of 0.838, a relative viability ([11]; first compound 0.8 µM) of 0.823 and a relative viability ([11]; first compound 2.53 µM) of 0.904. It also gave a relative viability ([11]; first compound 8 µM) of 0.854, a relative viability ([12]; first compound 0.08 µM) of 0.324 and a relative viability ([12]; first compound 0.253 µM) of 0.34. For the same compound, the relative viability ([12]; first compound 0.8 µM) was 0.285, the relative viability ([12]; first compound 2.53 µM) was 0.346 and the relative viability ([12]; first compound 8 µM) was 0.296. For the same compound, the relative viability ([13]; first compound 0.08 µM) was 0.229, the relative viability ([13]; first compound 0.253 µM) was 0.245 and the relative viability ([13]; first compound 0.8 µM) was 0.183. It also gave a relative viability ([13]; first compound 2.53 µM) of 0.221, a relative viability ([13]; first compound 8 µM) of 0.228 and a relative viability ([14]; first compound 0.08 µM) of 0.613. It also gave a relative viability ([14]; first compound 0.253 µM) of 0.576, a relative viability ([14]; first compound 0.8 µM) of 0.549 and a relative viability ([14]; first compound 2.53 µM) of 0.557. It also gave a relative viability ([14]; first compound 8 µM) of 0.62, a relative viability ([15]; first compound 0.08 µM) of 0.979 and a relative viability ([15]; first compound 0.8 µM) of 0.97. The relative viability ([15]; first compound 2.53 µM) was 0.829, the relative viability ([15]; first compound 8 µM) was 0.847 and the relative viability ([16]; first compound 0.08 µM) was 0.658. It also gave a relative viability ([16]; first compound 0.253 µM) of 0.629, a relative viability ([16]; first compound 0.8 µM) of 0.452 and a relative viability ([16]; first compound 2.53 µM) of 0.551. For the same compound, the relative viability ([16]; first compound 8 µM) was 0.66, the relative viability ([17]; first compound 0.08 µM) was 0.776 and the relative viability ([17]; first compound 0.253 µM) was 0.697. It also gave a relative viability ([17]; first compound 0.8 µM) of 0.854, a relative viability ([17]; first compound 2.53 µM) of 0.868 and a relative viability ([17]; first compound 8 µM) of 0.837. The relative viability ([18]; first compound 0.08 µM) was 0.43, the relative viability ([18]; first compound 0.253 µM) was 0.453 and the relative viability ([18]; first compound 0.8 µM) was 0.432. The relative viability ([18]; first compound 2.53 µM) was 0.477, the relative viability ([18]; first compound 8 µM) was 0.454 and the relative viability ([19]; first compound 0.08 µM) was 0.409. It also gave a relative viability ([19]; first compound 0.253 µM) of 0.446, a relative viability ([19]; first compound 0.8 µM) of 0.411 and a relative viability ([19]; first compound 2.53 µM) of 0.424. For the same compound, the relative viability ([19]; first compound 8 µM) was 0.495, the relative viability ([20]; first compound 0.08 µM) was 0.277 and the relative viability ([20]; first compound 0.253 µM) was 0.328. For the same compound, the relative viability ([20]; first compound 2.53 µM) was 0.342, the relative viability ([20]; first compound 8 µM) was 0.275 and the relative viability ([21]; first compound 0.08 µM) was 0.378. It also gave a relative viability ([21]; first compound 0.253 µM) of 0.4, a relative viability ([21]; first compound 0.8 µM) of 0.324 and a relative viability ([21]; first compound 2.53 µM) of 0.357. It also gave a relative viability ([21]; first compound 8 µM) of 0.39, a relative viability ([22]; first compound 0.253 µM) of 0.221 and a relative viability ([22]; first compound 0.8 µM) of 0.228. It also gave a relative viability ([22]; first compound 2.53 µM) of 0.144 and a relative viability ([22]; first compound 8 µM) of 0.231.
